# In US12070031B2 (priority 2020, dated 2024):
# Counter-ions that a name gives are not always drawn.
# How the values were obtained:
# [1] = tested on: tomato plants (Solanum lycopersicum); assay: Phytotoxicity after foliar application; assay type: in vivo; parameters: key to Phytotoxicity, Tomato sp.: No toxicity (−); symptoms appear on less than 5% of the leaves was rated as minimal (+); 5 to 50% was rated as moderate (++); above 50% was rated as severe (+++); conditions: for Phytotoxicity, Tomato sp.: foliar, 72 h
# Description: The phytotoxicity of the ZnNP adjuvant with and without streptomycin was tested on tomato plants (Solanum lycopersicum, model fruit plant, 11 cm tall) obtained from Home Depot. The ZnNP treatments were applied directly on plant leaves (foliar application) using a hand-held sprayer until excess liquid starts dripping. Foliar application was conducted at 8:00 a.m. in a greenhouse setting to simulate field conditions. Treated plants were then placed in a growth chamber, Panasonic environmental test chamber (model MLR-352H) with summer settings (34° C., 60-80% RH). Phytotoxicity was evaluated 72 h post application. Digital photographs of treated leaves were taken for the visual assessment (phenotypic) plant tissue damage. Parallel treatments were done with copper sulfate at 1000 μg/mL (positive control) and DI water (untreated control, UTC) to compare phytotoxicity level with the ZnNP treatments. The appearance of brown necrotic spots, chlorosis, and necrosis on the leaves is indicative of plant tissue damage (i.e. phytotoxicity). Phytotoxicity was rated as follows: No toxicity (−), symptoms appear on less than 5% of the leaves was rated as minimal (+), 5 to 50% was rated as moderate (++), and above 50% was rated as severe (+++). Phytotoxicity studies were carried out in triplicate for each treatment and concentration.
# X. alfalfae [2] = assay: MIC by broth microdilution (CLSI) with resazurin; assay type: cell-based, Xanthomonas alfalfae subsp. citrumelonis
# Description: (§1) The antimicrobial efficacy of the ZnNP-Strep and controls were evaluated by the antimicrobial assay methods as previously described. Briefly, Microplate Alamar Blue Assay (MABA) was performed to initially screen the antimicrobial efficacy of the NPs. Then, the minimum inhibitory concentration (MIC) was determined by broth microdilution method in accordance with the guidelines of the Clinical and Laboratory Standards Institute (CLSI). As per the CLSI requirements, from a starter culture of 0.5 McFarland Standard, 5×10^5 CFU/well was added to all the wells. […] The accuracy of the MIC determination was improved by adding 10 μL of resazurin dye (0.0125%, w/v) per 100 μL well volume and observing color changes (from blue to pink for live organisms).
# P. syringae = assay: MIC by broth microdilution (CLSI) with resazurin; assay type: cell-based, Pseudomonas syringae
# Description: as §1
# E. coli = assay: MIC by broth microdilution (CLSI) with resazurin; assay type: cell-based, Escherichia coli
# Description: as §1
# X. alfalfae [3] = assay: MBC by CFU plating after dialysis; assay type: cell-based, Xanthomonas alfalfae subsp. citrumelonis; conditions: Xanthomonas alfalfae; dialysis time N/A; relative to streptomycin concentration
# Description: The antimicrobial efficacy of ZnNP-Strep was also studied after dialysis of the particles. The particles were dialyzed to remove any unbound streptomycin and simulate the effect of rainfall on the particles in field conditions. […] The particles were dialyzed for 0, 1, 3, and 12 h and the remaining streptomycin loaded on the particles for each timepoint was quantified by LCMS by diluting the particles with 1% HCl and analyzing them with the previously described method. After streptomycin quantification the particles were diluted to 500 ppm streptomycin and their antimicrobial efficacy was assessed via MIC assay described above. The minimum bactericidal concentration (MBC) of the particles was also assessed by performing colony forming unit (CFU) plating. After 24 h incubation of bacteria with the samples, 100 μL of the treated bacteria was then transferred to nutrient agar plates. They were then spread dry using sterile spreaders (Fisher Scientific) and incubated for 48 h to check for bacterial growth at each concentration tested.
# X. alfalfae [4] = assay: MIC of ZnNP-Strep after dialysis (simulated rainfall); assay type: cell-based, Xanthomonas alfalfae subsp. citrumelonis; conditions: Xanthomonas alfalfae; dialysis time N/A; relative to streptomycin concentration
# Description: as §1
# The antimicrobial efficacy of ZnNP-Strep was also studied after dialysis of the particles. […] The particles were dialyzed for 0, 1, 3, and 12 h and the remaining streptomycin loaded on the particles for each timepoint was quantified by LCMS by diluting the particles with 1% HCl and analyzing them with the previously described method. After streptomycin quantification the particles were diluted to 500 ppm streptomycin and their antimicrobial efficacy was assessed via MIC assay described above. The minimum bactericidal concentration (MBC) of the particles was also assessed by performing colony forming unit (CFU) plating. […]
# [5] = 24 h incubation, concentration active
# [6] = highest concentration tested, 1000 μg/mL
smiles,measurement,setting,value
"O=S(=O)([O-])[O-].[Cu+2] [Copper sulfate, copper sulfate]","Phytotoxicity, Tomato sp.",[1]; 1000 μg/mL Cu,+++ (above 50% was rated as severe (+++))
same,signs of phytotoxicity (visual),[1]; 72 hrs after foliar application,many brown spots
"CC(=O)N[C@@H](CS)C(=O)O [NAC, N-acetylcysteine]",X. alfalfae (MIC),X. alfalfae [2]; [5],No inhibition
same,growth inhibitory effect,X. alfalfae [2]; [6],no growth inhibitory effect
same,P. syringae (MIC),P. syringae; [5],No inhibition
same,growth inhibitory effect,P. syringae; [6],no growth inhibitory effect
same,E. coli (MIC),E. coli; [5],No inhibition
same,growth inhibitory effect,E. coli; [6],no growth inhibitory effect
"[H]/N=C(/N)N[C@H]1[C@H](O)[C@@H](O)[C@H](O[C@@H]2O[C@@H](C)[C@](O)(C=O)[C@H]2O[C@@H]2O[C@@H](CO)[C@H](O)[C@@H](O)[C@@H]2NC)[C@@H](N/C(N)=N\[H])[C@@H]1O [Streptomycin sulfate, streptomycin sulfate]",MIC,"X. alfalfae [2]; Xanthomonas alfalfae, 24 h incubation, concentration active",2 µg/mL
same,MIC,"P. syringae; Pseudomonas syringae, 24 h incubation, concentration active",2 µg/mL
same,MBC,X. alfalfae [3],16 µg/mL
same,"Phytotoxicity, Tomato sp.",[1]; 1000 μg/mL Strep,−
same,MIC,"E. coli; Escherichia coli, 24 h incubation, concentration active",6 µg/mL
same,MIC,X. alfalfae [4],1 µg/mL
